Measurements published in patent US20240368120A1 (Terns Pharmaceuticals, Inc., priority 2023, published 2024).

Molecular target: T1, human GLP-1R receptor (Homo sapiens, UniProt P43220)
T1 construct: expressed in transfected cells
Assay: GLP-1R low expression cell assay (cAMP TR-FRET, CHO-K1_hGLP-1Rlow_clone10 cells)
Format: cell-based
Conditions: for EC50: cAMP TR-FRET, 30 min at 25° C.; for Emax: maximum activation relative to control GLP-1 peptide agonist
Experimental: Stable cell lines expressing high and low GLP-1R surface expression were generated in CHO-K1 cells transfected (Fugene 6) with a puromycin selectable DNA plasmid encoding human GLP-1R receptor (accession number: NM_002062.5) under control of an EF1A promoter. Transfected cells were seeded into 24-well plates (9,000 cells/well) containing complete medium and incubated in a humidified incubator at 37° C. with 5% carbon dioxide. After overnight incubation, medium was replaced with complete medium supplemented with puromycin (6 μg/mL) and refreshed every 2-3 days to select for stably transfected cells. Individual pools of selected cells were expanded prior to analysis for responsiveness to GLP-1 control peptide using a TR-FRET assay to detect cAMP (LANCE Ultra CAMP Assay, Perkin Elmer). Briefly, cells were collected in Versene solution, plated in 384-well plates (1,000 cells/well) and combined with serially diluted GLP-IR control peptide (10 nL) using an acoustic dispenser (ECHO). Plates were incubated for 30 minutes at 25° C. prior to the addition of EU-CAMP tracer (5 μL) and Ulight-anti-CAMP (5 μL) reagents to each well, followed by 15 minutes incubation at 25° C. TR-FRET signal was detected using an En Vision Multimode Plate Reader (excitation=320 nm; emission=615 and 655 nm). Dose-response curves were used to generate EC50 values as a measure of responsiveness to the GLP-IR control peptide. Selected cell lines were monitored for responsiveness over multiple passages to ensure stability. […] Briefly, GLP-IR expression was analyzed by flow cytometry using a fluorescein-labeled Exendin-4 peptide fluorescent probe (FLEX). Cells were harvested in Versene solution and washed 3-times with PBS+0.5% BSA before incubation with FLEX reagent (10 μM) for 2 hours at room temperature. After incubation, cells were washed 3-times in PBS+0.5% BSA before final resuspension in PBS prior to analysis by flow cytometry to measure FLEX mean fluorescence intensity (MFI) as a measure of GLP-IR expression on the cell surface.
For compound testing in the CHO-K1_hGLP-IRlow_clone10 cell line, cells were seeded in 384-well plates (1,000 cells/well). Test compounds were serially diluted in DMSO (10-point, 3-fold dilution), added to wells using an ECHO dispenser (10 nL/well) and plates were centrifuged for 1 min and agitated for 2 min at room temperature prior to 30-minute incubation at 25° C. After incubation, Eu-CAMP (5 μL) and Ulight-anti-cAMP (5 μL) reagents were added to each well, followed by centrifugation for 1 minute, agitation for 2 minutes at room temperature, and final incubation of the plates at 25° C. for 15 minutes. Plates were read using an EnVision microplate reader (excitation=320 nm; emission=615 and 655 nm). Dose-response curves were generated from duplicate wells based on percent activation calculated relative to a control GLP-1 peptide agonist that was run in parallel. EC50 values were determined by fitting percent activation as a function of compound concentration using the Hill equation (XLfit).
The compounds tested were compound samples prepared according to the General Procedures described in the Examples section.

T1 sequence (P43220 24-463): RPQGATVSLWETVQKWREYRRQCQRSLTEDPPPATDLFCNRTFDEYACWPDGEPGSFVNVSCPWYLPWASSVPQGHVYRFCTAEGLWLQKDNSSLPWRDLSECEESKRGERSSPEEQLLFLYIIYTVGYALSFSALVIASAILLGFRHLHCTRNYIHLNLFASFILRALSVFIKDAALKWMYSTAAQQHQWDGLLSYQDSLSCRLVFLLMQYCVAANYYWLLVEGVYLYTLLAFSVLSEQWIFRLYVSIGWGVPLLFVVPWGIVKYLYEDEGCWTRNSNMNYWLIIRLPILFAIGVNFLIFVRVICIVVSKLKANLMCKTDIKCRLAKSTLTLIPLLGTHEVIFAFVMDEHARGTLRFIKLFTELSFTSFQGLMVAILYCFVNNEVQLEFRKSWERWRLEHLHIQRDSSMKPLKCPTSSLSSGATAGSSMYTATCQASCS

For `Cn1c(CN2CCC(c3cccc4c3O[C@H](c3ccc(Cl)cc3F)CC4)CC2)nc2c(OC(F)F)cc(C(=O)O)cc21` [Compound 368, (S)-2-((4-(2-(4-Chloro-2-fluorophenyl)chroman-8-yl)piperidin-1-yl)methyl)-4-(difluoromethoxy)-1-methyl-1H-benzo[d]imidazole-6-carboxylic acid], the EC50 was over 1000 nM and the Emax was 25 to 50%.

In the case of `C[C@@H](c1nc2c(OC(F)F)cc(C(=O)O)cc2n1C)N1CCC(c2cccc(OCc3ccc(C#N)cc3F)n2)CC1` [Compound 119, (S)-2-(1-(4-(6-((4-Cyano-2-fluorobenzyl)oxy)pyridin-2-yl)piperidin-1-yl)ethyl)-4-(difluoromethoxy)-1-methyl-1H-benzo[d]imidazole-6-carboxylic acid], the EC50 is reported as 10 to 100 nM and the Emax is reported as 50 to 85%.

Work on `Cn1c(CN2CCC(c3cccc(OCc4ccc(F)cc4F)n3)CC2)nc2c(OC(F)F)cc(C(=O)O)cc21` [Compound 250, 2-((4-(6-((2,4-Difluorobenzyl)oxy)pyridin-2-yl)piperidin-1-yl)methyl)-4-(difluoromethoxy)-1-methyl-1H-benzo[d]imidazole-6-carboxylic acid] yielded an EC50 of 10 to 100 nM.

In the case of `CCn1c(CN2CCC(c3cccc4c3O[C@@](C)(c3ccc(Cl)cn3)O4)CC2)nc2c(OC(C)C)cc(C(=O)O)cc21` [Compound 88, (S)-2-((4-(2-(5-Chloropyridin-2-yl)-2-methylbenzo[d][1,3]dioxol-4-yl)piperidin-1-yl)methyl)-1-ethyl-4-isopropoxy-1H-benzo[d]imidazole-6-carboxylic acid], the EC50 is reported as 10 to 100 nM and the Emax is reported as over 85%.

`Cn1c(CN2CCC(c3cccc4c3OC(c3ccc(Cl)cc3F)C=C4)CC2)nc2c(OC(F)F)cc(C(=O)O)cc21` (single isomer, unassigned) [Compound 175] gave an EC50 of under 10 nM and an Emax of over 85%.

In the case of `Cn1c(CN2CCC(c3cccc(OCc4ccc(C(F)(F)F)cn4)n3)CC2)nc2c(OC(F)F)cc(C(=O)O)cc21` [Compound 229, 4-(Difluoromethoxy)-1-methyl-2-((4-(6-((5-(trifluoromethyl)pyridin-2-yl)methoxy)pyridin-2-yl)piperidin-1-yl)methyl)-1H-benzo[d]imidazole-6-carboxylic acid], the EC50 is reported as 100 to 1000 nM and the Emax is reported as over 85%.

In the case of `[2H]C([2H])(C)Oc1cc(C(=O)O)cc2c1nc(CN1CCC(c3cccc(OC([2H])([2H])c4ccc(C#N)cc4F)n3)CC1)n2C` [Compound 285, 2-((4-(6-((4-Cyano-2-fluorophenyl)methoxy-d2)pyridin-2-yl)piperidin-1-yl)methyl)-4-(ethoxy-1,1-d2)-1-methyl-1H-benzo[d]imidazole-6-carboxylic acid], the EC50 is reported as under 10 nM and the Emax is reported as over 85%.

In the case of `[2H]C([2H])(Oc1cccc(C2CCN(Cc3nc4c(OC(F)F)cc(C(=O)O)cc4n3C)CC2)n1)c1ccc(Cl)cc1F` [Compound 195, 2-((4-(6-((4-Chloro-2-fluorophenyl)methoxy-d2)pyridin-2-yl)piperidin-1-yl)methyl)-4-(difluoromethoxy)-1-methyl-1H-benzo[d]imidazole-6-carboxylic acid], the EC50 is reported as 10 to 100 nM and the Emax is reported as over 85%.

In the case of `Cn1c(CN2CCC(c3cccc(OCc4ccc(Cl)cc4F)c3)CC2)nc2c(OC(F)F)cc(N3CC(=O)NS3(=O)=O)cc21` [Compound 281, 5-(2-((4-(3-((4-Chloro-2-fluorobenzyl)oxy)phenyl)piperidin-1-yl)methyl)-4-(difluoromethoxy)-1-methyl-1H-benzo[d]imidazol-6-yl)-1,2,5-thiadiazolidin-3-one 1,1-dioxide], the EC50 is reported as over 1000 nM and the Emax is reported as 50 to 85%.

`Cn1c(CN2CCC(c3cccc(OCc4ccccc4F)n3)CC2)nc2c(OC(F)F)cc(C(=O)O)cc21` [Compound 251, 4-(Difluoromethoxy)-2-((4-(6-((2-fluorobenzyl)oxy)pyridin-2-yl)piperidin-1-yl)methyl)-1-methyl-1H-benzo[d]imidazole-6-carboxylic acid] was tested, and the EC50 was 100 to 1000 nM.

`O=C(O)c1cc(OCF)c2c(c1)nc(CN1CCC(c3cccc(OCc4ccc(Cl)cc4F)n3)CC1)n2CF` [Compound 347, 2-((4-(6-((4-Chloro-2-fluorobenzyl)oxy)pyridin-2-yl)piperidin-1-yl)methyl)-7-(fluoromethoxy)-1-(fluoromethyl)-1H-benzo[d]imidazole-5-carboxylic acid] gave an EC50 of over 1000 nM and an Emax of 25 to 50%.

`CO[C@H]1C[C@H](Oc2cc(C(=O)O)cc3c2nc(CN2CCC(c4cccc(OCc5ccc(Cl)cc5F)n4)CC2)n3C)C1` [Compound 325, 2-((4-(6-((4-Chloro-2-fluorobenzyl)oxy)pyridin-2-yl)piperidin-1-yl)methyl)-4-((1r,3r)-3-methoxycyclobutoxy)-1-methyl-1H-benzo[d]imidazole-6-carboxylic acid] showed an EC50 of 100 to 1000 nM and an Emax of over 85%.

`Cn1c(CN2CCC(c3ccnnc3OCc3ccc(Cl)cc3F)CC2)nc2c(OC(F)F)cc(C(=O)O)cc21` [Compound 355, 2-((4-(3-((4-Chloro-2-fluorobenzyl)oxy)pyridazin-4-yl)piperidin-1-yl)methyl)-4-(difluoromethoxy)-1-methyl-1H-benzo[d]imidazole-6-carboxylic acid] showed an EC50 of 100 to 1000 nM and an Emax of over 85%.

For `CCOc1cc(C(=O)O)cc2c1nc(CN1CCC(Oc3cccc(COc4ccc(Cl)cc4F)n3)CC1)n2C` [Compound 256, 2-((4-((6-((4-chloro-2-fluorophenoxy)methyl)pyridin-2-yl)oxy)piperidin-1-yl)methyl)-4-ethoxy-1-methyl-1H-benzo[d]imidazole-6-carboxylic acid], the EC50 was under 10 nM and the Emax was over 85%.

`[2H]C([2H])(C)Oc1cc(C(=O)O)cc2c1nc(C([2H])([2H])N1CCC(c3cccc(OC([2H])([2H])c4ccc(Cl)cc4F)n3)CC1)n2C` [Compound 381, 2-((4-(6-((4-Chloro-2-fluorophenyl)methoxy-d2)pyridin-2-yl)piperidin-1-yl)methyl-d2)-4-(ethoxy-1,1-d2)-1-methyl-1H-benzo[d]imidazole-6-carboxylic acid] gave an EC50 of under 10 nM and an Emax of over 85%.

`Cn1c(CN2CCC(c3cccc(OCc4ccc(Cl)cc4F)n3)CC2)nc2c(OC(F)F)cc(C(=O)O)c(F)c21` [Compound 190, 2-((4-(6-((4-Chloro-2-fluorobenzyl)oxy)pyridin-2-yl)piperidin-1-yl)methyl)-4-(difluoromethoxy)-7-fluoro-1-methyl-1H-benzo[d]imidazole-6-carboxylic acid] showed an EC50 of 10 to 100 nM and an Emax of over 85%.

`N#Cc1ccc(COc2cccc(C3CCN(Cc4nc5c(N)nc(C(=O)O)cc5n4C[C@@H]4CCO4)CC3)n2)c(F)c1` [Compound 134, (S)-4-amino-2-((4-(6-((4-cyano-2-fluorobenzyl)oxy)pyridin-2-yl)piperidin-1-yl)methyl)-1-(oxetan-2-ylmethyl)-1H-imidazo[4,5-c]pyridine-6-carboxylic acid] was tested, and the EC50 was 10 to 100 nM and the Emax was over 85%.

For `Cn1c(CN2CCC(n3ccc(OCc4ccc(Cl)cc4F)n3)CC2)nc2c(OC(F)F)cc(C(=O)O)cc21` [Compound 217, 2-((4-(3-((4-Chloro-2-fluorobenzyl)oxy)-1H-pyrazol-1-yl)piperidin-1-yl)methyl)-4-(difluoromethoxy)-1-methyl-1H-benzo[d]imidazole-6-carboxylic acid], the EC50 was over 1000 nM and the Emax was over 85%.

`COc1cc(C(=O)O)cc2c1nc(CN1CCC(c3cccc4c3OC[C@H](c3ccc(Cl)cc3F)O4)CC1)n2C` [Compound 258, (S)-2-((4-(2-(4-Chloro-2-fluorophenyl)-2,3-dihydrobenzo[b][1,4]dioxin-5-yl)piperidin-1-yl)methyl)-4-methoxy-1-methyl-1H-benzo[d]imidazole-6-carboxylic acid] was tested, and the EC50 was 100 to 1000 nM and the Emax was over 85%.

For `CCCOc1cc(C(=O)O)cc2c1nc(CN1CCC(c3cccc(OCc4ccc(Cl)cc4F)n3)CC1)n2C` [Compound 322, 2-((4-(6-((4-chloro-2-fluorobenzyl)oxy)pyridin-2-yl)piperidin-1-yl)methyl)-1-methyl-4-propoxy-1H-benzo[d]imidazole-6-carboxylic acid], the EC50 was 10 to 100 nM and the Emax was over 85%.
